# Laboratory results taken from patent publication EP4603105A1, “PHARMACEUTICAL COMPOSITION CONTAINING CYCLIC COMPOUND HAVING SELECTIVE KRAS INHIBITORY EFFECT AGAINST HRAS AND NRAS” (CHUGAI SEIYAKU KABUSHIKI KAISHA, priority 2022, dated 2024).
# Where two headings read alike, the source gives them in different places.
# Key:
# [1] = molecular target: GDP-bound KRAS wild-type protein (Homo sapiens, UniProt P01116); experiment: Binding to KRAS by surface plasmon resonance (SPR), dissociation constant KD
# GDP-bound KRAS wild-type protein, sequence (P01116 1-188 isoform P01116-2): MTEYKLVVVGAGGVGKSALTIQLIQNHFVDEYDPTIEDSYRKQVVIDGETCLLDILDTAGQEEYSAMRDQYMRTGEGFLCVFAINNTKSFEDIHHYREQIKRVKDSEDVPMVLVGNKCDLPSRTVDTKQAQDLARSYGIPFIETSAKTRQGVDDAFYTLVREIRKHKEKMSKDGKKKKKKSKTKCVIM
# Method in brief: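 Each cycle, GDP-bound biotin-Avi RAS was captured (~100–300 RU), compound concentrations were injected low to high for 75 s each at 100 µL/min, then the chip was regenerated. Buffer: HBS pH 7.4, 10 mM MgCl2, 10 µM GDP, 1 mM DTT, 4% DMSO; 30°C. KD from a 1:1 binding model.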
# [2] = molecular target: GDP-bound NRAS wild-type protein (Homo sapiens, UniProt P01111); experiment: Binding to NRAS by surface plasmon resonance (SPR), KD and KD ratio to KRAS
# GDP-bound NRAS wild-type protein, sequence (P01111 whole entry): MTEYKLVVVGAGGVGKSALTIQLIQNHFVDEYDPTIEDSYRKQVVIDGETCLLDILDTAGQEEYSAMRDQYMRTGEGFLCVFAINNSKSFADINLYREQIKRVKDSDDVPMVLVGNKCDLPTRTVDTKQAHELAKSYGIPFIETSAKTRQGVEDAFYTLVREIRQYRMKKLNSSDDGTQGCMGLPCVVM
# Method in brief: (§1)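 Captured GDP-RAS (~100–300 RU) was exposed to increasing compound concentrations, 75 s per step, in running buffer with 10 µM GDP, 10 mM MgCl2 and 4% DMSO at pH 7.4.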
# [3] = molecular target: HRAS wild-type protein (Homo sapiens, UniProt P01112); experiment: Binding to HRAS by surface plasmon resonance (SPR), KD and KD ratio to KRAS
# HRAS wild-type protein, sequence (P01112 whole entry): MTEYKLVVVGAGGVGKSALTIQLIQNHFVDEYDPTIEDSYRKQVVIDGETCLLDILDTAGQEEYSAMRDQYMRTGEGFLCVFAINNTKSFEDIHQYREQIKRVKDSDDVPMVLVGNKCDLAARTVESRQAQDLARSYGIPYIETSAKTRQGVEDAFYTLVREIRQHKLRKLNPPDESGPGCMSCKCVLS
# Method in brief: as §1
# [4] = tested on: human lung cancer strain NCI-H441; experiment: NCI-H441 cell proliferation inhibitory activity (CellTiter-Glo, 4 days); format: cell-based; settings: read-out: NCl-H441 IC50
# Method in brief: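 Step one: dispense the test compound in serial DMSO dilutions. Step three: add the reagent and measure […].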
# [5] = ratio of KD for GDP-bound NRAS wild-type protein to KD for KRAS
# [6] = ratio of KD for HRAS wild-type protein to KD for KRAS
# [7] = Single Cycle Kinetics, 1:1 binding model
# [8] = ratio of KD with respect to GDP-bound NRAS wild-type protein to KD with respect to KRAS
# [9] = ratio of KD with respect to HRAS wild-type protein to KD with respect to KRAS
# [10] = 50% proliferation inhibitory concentration, four days
Kd ([1]; Single Cycle Kinetics),"IC50 ([4]; NCI-H441 cells, 4 days)","Kd [1, 7]","IC50 [4, 10]",Kd ([1]; 1:1 binding model),Compound,"NRAS /KRAS [2, 5]","HRAS /KRAS [3, 6]","NRAS /KRAS [2, 8]","HRAS /KRAS [3, 9]"
0.69 nM,22.8 nM,,,,C#CC[C@H]1C(=O)N[C@@H]([C@@H](C)CC)C(=O)N(C2CC2)CC(=O)N(C)[C@H]2C/C=C\CCN(C2=O)[C@@H](Cc2ccc(C)cc2)C(=O)N(C)CC(=O)N[C@@H](CCc2ccc(C(F)(F)F)c(OC)c2)C(=O)N2C[C@H](OCC)C[C@H]2C(=O)OC2(CCC2)C(=O)N(C)[C@@H](C2CCCC2)C(=O)N(C)[C@H](C(=O)N(C)C)CC(=O)N1C [PP3390],A (a compound having 10 or more and less than 20 is denoted as A),B (a compound having 3 or more and less than 10 is denoted as B),,
0.09 nM,13.6 nM,,,,CCO[C@@H]1C[C@H]2C(=O)NC3(CC(C)(C)C3)C(=O)N(C)[C@@H](C3CCCC3)C(=O)N(C)[C@H](C(=O)N(C)CC)CC(=O)N(C)[C@@H]([C@@H](C)OC)C(=O)N[C@@H]([C@@H](C)CC)C(=O)N(C)CC(=O)N(C)[C@H]3C/C=C\CCN(C3=O)[C@@H](Cc3ccc(C)cc3)C(=O)N(C)CC(=O)N[C@@H](CCc3ccc(C(F)(F)F)c(OC)c3)C(=O)N2C1 [PP3176],A (a compound having 10 or more and less than 20 is denoted as A),A (a compound having 10 or more and less than 20 is denoted as A),,
0.23 nM,16.4 nM,,,,CCC[C@H]1C(=O)N[C@@H](C2CCCC2)C(=O)N(C)CC(=O)N(C)[C@H]2C/C=C\CCN(C2=O)[C@@H](Cc2ccc(C)cc2)C(=O)N(C)CC(=O)N[C@@H](CCc2ccc(C(F)(F)F)c(Cl)c2)C(=O)N2CC3(CC3)C[C@H]2C(=O)N(C)C2(CCC2)C(=O)N(C)[C@@H](C(CC)CC)C(=O)N(C)[C@H](C(=O)N(C)C)CC(=O)N1C [PP3324],AA (a compound having 20 or more is denoted as AA),B (a compound having 3 or more and less than 10 is denoted as B),,
,,0.29 nM,10.3 nM,,CCO[C@@H]1C[C@H]2C(=O)NC3(CCC3)C(=O)N(C)[C@@H](C3CCCC3)C(=O)N(C)[C@H](C(=O)N3CCOCC3)CC(=O)N(C)[C@@H](CC(C)C)C(=O)N[C@@H]([C@@H](C)CC)C(=O)N3CC[C@H]3C(=O)N(C)[C@H]3CC[C@@H](C)CN(C3=O)[C@@H](Cc3ccc(C(F)(F)F)cc3)C(=O)N(C)CC(=O)N[C@@H](CCc3ccc(C(F)(F)F)c(Cl)c3)C(=O)N2C1 [PP1379],,,A (a compound having 10 or more and less than 20 is denoted as A),B (a compound having 3 or more and less than 10 is denoted as B)
,,0.15 nM,73.1 nM,,CCO[C@@H]1C[C@H]2C(=O)NC3(CCC3)C(=O)N(C)[C@@H](C3CCCC3)C(=O)N(C)[C@H](C(=O)N(C)C)CC(=O)N(C)[C@@H](Cc3ccccc3C#N)C(=O)N[C@@H]([C@@H](C)CC)C(=O)N(C)CC(=O)N(C)[C@H]3CCCCCN(C3=O)[C@@H](Cc3ccc(F)cc3)C(=O)N(C)CC(=O)N[C@@H](CCc3cc(F)c(C(F)(F)F)c(F)c3)C(=O)N2C1 [PP1155],,,B (a compound having 3 or more and less than 10 is denoted as B),B (a compound having 3 or more and less than 10 is denoted as B)
0.3 nM,12.4 nM,,,,CCO[C@@H]1C[C@H]2C(=O)NC3(CC(C)(C)C3)C(=O)N(C)[C@@H](C3CCCC3)C(=O)N(C)[C@H](C(=O)N(C)CC)CC(=O)N(C)[C@@H]([C@H](C)OC)C(=O)N[C@@H]([C@@H](C)CC)C(=O)N(C)CC(=O)N(C)[C@H]3C/C=C\CCN(C3=O)[C@@H](Cc3ccc(C)cc3)C(=O)N(C)CC(=O)N[C@@H](CCc3cc(F)c(C(F)(F)F)c(F)c3)C(=O)N2C1 [PP3226],A (a compound having 10 or more and less than 20 is denoted as A),B (a compound having 3 or more and less than 10 is denoted as B),,
,,0.18 nM,70.8 nM,,CCO[C@@H]1C[C@H]2C(=O)NC3(CCC3)C(=O)N(C)[C@@H](C3CCCC3)C(=O)N(C)[C@H](C(=O)N(C)C)CC(=O)N(C)[C@@H](Cc3ccc(C#N)cc3)C(=O)N[C@@H]([C@@H](C)CC)C(=O)N(C)CC(=O)N(C)[C@H]3CCCCCN(C3=O)[C@@H](Cc3ccc(C(F)(F)F)cc3)C(=O)N(C)CC(=O)N[C@@H](CCc3cc(F)c(C(F)(F)F)c(F)c3)C(=O)N2C1 [PP1173],,,B (a compound having 3 or more and less than 10 is denoted as B),B (a compound having 3 or more and less than 10 is denoted as B)
0.12 nM,4.1 nM,,,,C#CC[C@H]1C(=O)N[C@@H]([C@@H](C)CC)C(=O)N(C2CC2)CC(=O)N(C)[C@H]2C/C=C\CCN(C2=O)[C@@H](Cc2ccc(C)cc2)C(=O)N(C)CC(=O)N[C@@H](CCc2ccc(C(F)(F)F)c(Cl)c2)C(=O)N2C[C@H](OCC)C[C@H]2C(=O)N(C)C2(CCC2)C(=O)N(C)[C@@H](C2CCCC2)C(=O)N(C)[C@H](C(=O)N(C)C)CC(=O)N1C [PP3251],B (a compound having 3 or more and less than 10 is denoted as B),B (a compound having 3 or more and less than 10 is denoted as B),,
,,0.054 nM,90.7 nM,,CC[C@H](C)[C@@H]1NC(=O)[C@H](C)N(C)C(=O)C[C@@H](C(=O)N(C)C)N(C)C(=O)[C@H](C2CCCC2)N(C)C(=O)C2(CCC2)NC(=O)[C@@H]2CCCN2C(=O)[C@H](CCc2cc(F)c(C(F)(F)F)c(F)c2)NC(=O)CN(C)C(=O)[C@H](Cc2ccc(C(F)(F)F)cc2)N2CC/C=C\C[C@@H](C2=O)N(C)C(=O)CN(C)C1=O [PP1271],,,AA (a compound having 20 or more is denoted as AA),A (a compound having 10 or more and less than 20 is denoted as A)
,67.2 nM,,,0.85 nM,CCC[C@H]1C(=O)N[C@@H]([C@@H](C)CC)C(=O)N2CCC[C@H]2C(=O)N(C)[C@H]2C/C=C\CCN(C2=O)[C@@H](CC2CCCCC2)C(=O)N(C)CC(=O)N[C@@H](CCc2ccc(C(F)(F)F)c(OC)c2)C(=O)N2C[C@@H](C)C[C@H]2C(=O)N(C)C2(CCC2)C(=O)N(C)[C@@H](C2CCCC2)C(=O)N(C)[C@H](C(=O)N(C)C)CC(=O)N1C [PP2374],A (a compound having 10 or more and less than 20 is denoted as A),A (a compound having 10 or more and less than 20 is denoted as A),,
0.96 nM,19.4 nM,,,,CCC[C@H]1C(=O)N[C@@H]([C@@H](C)CC)C(=O)N2CCCC[C@H]2C(=O)N(C)[C@H]2C/C=C\CCN(C2=O)[C@@H](Cc2ccc(C(F)(F)F)cc2)C(=O)N(C)CC(=O)N[C@@H](CCc2ccc(C(F)(F)F)c(Cl)c2)C(=O)N2C[C@H](OCC)C[C@H]2C(=O)N(C)C2(CCC2)C(=O)N(C)[C@@H](C2CCCC2)C(=O)N(C)[C@H](C(=O)N(C)C)CC(=O)N1C [PP3272],A (a compound having 10 or more and less than 20 is denoted as A),B (a compound having 3 or more and less than 10 is denoted as B),,
,55.8 nM,,,0.85 nM,CCC[C@H]1C(=O)N[C@@H]([C@@H](C)CC)C(=O)N(C)CC(=O)N(C)[C@H]2C/C=C\CCN(C2=O)[C@@H](Cc2ccc(C(F)(F)F)cc2)C(=O)N(C)CC(=O)N[C@@H](CCc2ccc(C(F)(F)F)c(OC)c2)C(=O)N2C[C@H](OCC)C[C@H]2C(=O)NC2(CC(C)(C)C2)C(=O)N(C)[C@@H](CC2CCC2)C(=O)N(C)[C@H](C(=O)N(C)C)CC(=O)N1C [PP2764],A (a compound having 10 or more and less than 20 is denoted as A),A (a compound having 10 or more and less than 20 is denoted as A),,
0.1 nM,9.8 nM,,,,CCO[C@@H]1C[C@H]2C(=O)NC3(CC(C)(C)C3)C(=O)N(C)[C@@H](C3CCCC3)C(=O)N(C)[C@H](C(=O)N(C)C)CC(=O)N(C)[C@@H]([C@H](C)OC)C(=O)N[C@@H]([C@@H](C)CC)C(=O)N(C)CC(=O)N(C)[C@H]3C/C=C\CCN(C3=O)[C@@H](Cc3ccc(C(F)(F)F)cc3)C(=O)N(C)CC(=O)N[C@@H](CCc3ccc(C(F)(F)F)c(OC)c3)C(=O)N2C1 [PP3167],B (a compound having 3 or more and less than 10 is denoted as B),A (a compound having 10 or more and less than 20 is denoted as A),,
,9.8 nM,,,0.33 nM,CCO[C@H](C)[C@@H]1NC(=O)[C@H](CC(C)C)N(C)C(=O)C[C@@H](C(=O)N(C)CC)N(C)C(=O)[C@H](C2CCCC2)N(C)C(=O)C2(CC(C)(C)C2)NC(=O)[C@@H]2C[C@H](C)CN2C(=O)[C@H](CCc2cc(F)c(C(F)(F)F)c(F)c2)NC(=O)CN(C)C(=O)[C@H](Cc2ccc(C)cc2)N2CC/C=C\C[C@@H](C2=O)N(C)C(=O)CN(C)C1=O [PP2414],A (a compound having 10 or more and less than 20 is denoted as A),A (a compound having 10 or more and less than 20 is denoted as A),,
0.16 nM,13.2 nM,,,,CCC[C@@H]1NC(=O)C[C@@H](C(=O)N(C)C)N(C)C(=O)[C@H](C2CCCC2)N(C)C(=O)C2(CC(C)(C)C2)NC(=O)[C@@H]2C[C@@H](OCC)CN2C(=O)[C@H](CCc2cc(F)c(C(F)(F)F)c(F)c2)NC(=O)CN(C)C(=O)[C@H](Cc2ccc(C(F)(F)F)cc2)N2CC/C=C\C[C@@H](C2=O)N(C)C(=O)CN(C)C(=O)[C@H]([C@@H](C)CC)NC1=O [PP3457],AA (a compound having 20 or more is denoted as AA),A (a compound having 10 or more and less than 20 is denoted as A),,
